In PubChem BioAssay AID2060612 (Molecular Pharmacology Branch, DTP, NCI, 2025):

System: 565232-114-T-J1-PDC complex spheroid viability
Test: Anticancer human tumor 565232-114-T-J1-PDC patient-derived bladder carcinoma cell line growth inhibition [CLK]
Conditions: for IC50: curve of first compound; for viability, T/C: stronger effect = lower value; active means viability on the fitted dose curve at most 10% of control; inactive means the rest
Method in brief: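 Patient-derived tumor cells grown as complex spheroids with HUVEC endothelial cells and mesenchymal stem cells, treated with drug combinations. Concentrations descend in half-log steps from near clinical Cmax, or from 10 microM if Cmax unknown.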

[1] = second compound 0.0316 µM, first compound 0.0316 µM
[2] = second compound 0.0316 µM, first compound 0.1 µM
[3] = second compound 0.0316 µM, first compound 0.316 µM
[4] = second compound 0.0316 µM, first compound 1 µM
[5] = second compound 0.0316 µM, first compound 3.16 µM
[6] = second compound 0.0316 µM, first compound 10 µM
[7] = second compound 0.1 µM, first compound 0.0316 µM
[8] = second compound 0.1 µM, first compound 0.1 µM
[9] = second compound 0.1 µM, first compound 0.316 µM
[10] = second compound 0.1 µM, first compound 1 µM
[11] = second compound 0.1 µM, first compound 3.16 µM
[12] = second compound 0.1 µM, first compound 10 µM
[13] = second compound 0.316 µM, first compound 0.0316 µM
[14] = second compound 0.316 µM, first compound 0.1 µM
[15] = second compound 0.316 µM, first compound 0.316 µM
[16] = second compound 0.316 µM, first compound 1 µM
[17] = second compound 0.316 µM, first compound 3.16 µM
[18] = second compound 0.316 µM, first compound 10 µM
[19] = second compound 1 µM, first compound 0.0316 µM
[20] = second compound 1 µM, first compound 0.1 µM
[21] = second compound 1 µM, first compound 0.316 µM
[22] = second compound 1 µM, first compound 1 µM
[23] = second compound 1 µM, first compound 3.16 µM
[24] = second compound 1 µM, first compound 10 µM
[25] = second compound 3.16 µM, first compound 0.0316 µM
[26] = second compound 3.16 µM, first compound 0.1 µM
[27] = second compound 3.16 µM, first compound 0.316 µM
[28] = second compound 3.16 µM, first compound 1 µM
[29] = second compound 3.16 µM, first compound 3.16 µM
[30] = second compound 3.16 µM, first compound 10 µM
[31] = second compound 10 µM, first compound 0.0316 µM
[32] = second compound 10 µM, first compound 0.1 µM
[33] = second compound 10 µM, first compound 0.316 µM
[34] = second compound 10 µM, first compound 1 µM
[35] = second compound 10 µM, first compound 3.16 µM
[36] = second compound 10 µM, first compound 10 µM
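Further: spheroids exposed to compounds for 7 days before readout.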
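Wherever viability, T/C is given: 100% = DMSO vehicle wells with luminescence normalized to vehicle control.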

CC(CO)NC(=O)c1cc(-c2ccc(Cl)cc2)nn(-c2cnn(C)c2)c1=O (stereo not drawn) + CN1CCN(c2cc(C(=O)Nc3cc4cc(-c5cnn(C)c5)ccc4cn3)ccn2)CC1
inactive: viability, T/C [1] 104% | viability, T/C [2] 73.7% | viability, T/C [3] 86.5% | viability, T/C [4] 86.2% | viability, T/C [5] 93.7% | viability, T/C [6] 103% | viability, T/C [7] 92% | viability, T/C [8] 91% | viability, T/C [9] 96.7% | viability, T/C [10] 89.7% | viability, T/C [11] 124% | viability, T/C [12] 120% | viability, T/C [13] 22.2% | viability, T/C [14] 21% | viability, T/C [15] 27.3% | viability, T/C [16] 23.4% | viability, T/C [17] 24.6% | viability, T/C [18] 26.9%
< 31.6 nM: IC50 (second compound 0.316 µM) | IC50 (second compound 1 µM) | IC50 (second compound 3.16 µM) | IC50 (second compound 10 µM)
> 10000 nM: IC50 (second compound 0.0316 µM) | IC50 (second compound 0.1 µM)
active: viability, T/C [19] 0.2% | viability, T/C [20] 2.31% | viability, T/C [21] 1.11% | viability, T/C [22] 0.21% | viability, T/C [23] 2.03% | viability, T/C [24] 3.08% | viability, T/C [25] 0.21% | viability, T/C [26] 0.65% | viability, T/C [27] 4.15% | viability, T/C [28] 0.22% | viability, T/C [29] 2.88% | viability, T/C [30] 2.53% | viability, T/C [31] 0.26% | viability, T/C [32] 0.28% | viability, T/C [33] 2.2% | viability, T/C [34] 1.23% | viability, T/C [35] 4.13% | viability, T/C [36] 3.6%

CC1COCCN1c1cc(C2(S(C)(=N)=O)CC2)nc(-c2ccnc3[nH]ccc23)n1 (stereo not drawn) + CN1CCN(c2cc(C(=O)Nc3cc4cc(-c5cnn(C)c5)ccc4cn3)ccn2)CC1
inactive: viability, T/C [1] 89.7% | viability, T/C [2] 93.5% | viability, T/C [3] 98.5% | viability, T/C [4] 79.7% | viability, T/C [5] 101% | viability, T/C [6] 50.7% | viability, T/C [7] 95.7% | viability, T/C [8] 91.2% | viability, T/C [9] 80.7% | viability, T/C [10] 82.6% | viability, T/C [11] 98.8% | viability, T/C [12] 26.1% | viability, T/C [13] 16.3% | viability, T/C [14] 18.7% | viability, T/C [15] 14.9%
> 10000 nM: IC50 (second compound 0.0316 µM)
active: viability, T/C [16] 9.37% | viability, T/C [17] 3.94% | viability, T/C [18] 3.31% | viability, T/C [19] 0.17% | viability, T/C [20] 0.5% | viability, T/C [21] 0.18% | viability, T/C [22] 0.19% | viability, T/C [23] 1.38% | viability, T/C [24] 1.91% | viability, T/C [25] 0.25% | viability, T/C [26] 0.22% | viability, T/C [27] 3.08% | viability, T/C [28] 0.81% | viability, T/C [29] 0.72% | viability, T/C [30] 2.22% | viability, T/C [31] 1.75% | viability, T/C [32] 2.46% | viability, T/C [33] 1.22% | viability, T/C [34] 0.21% | viability, T/C [35] 0.21% | viability, T/C [36] 0.53%
< 31.6 nM: IC50 (second compound 0.316 µM) | IC50 (second compound 1 µM) | IC50 (second compound 3.16 µM) | IC50 (second compound 10 µM)
6510 nM: IC50 (second compound 0.1 µM)

COc1ccc([C@@H](O)c2cc(-c3ncnc4cc(N5CCOCC5)ccc34)c(F)cc2Cl)nn1 + CNC(=O)c1ccc(Nc2nc(OC3CCCC3)c3c(-c4ccc5nc(C)oc5c4)c[nH]c3n2)c(OC)c1
< 31.6 nM: IC50 (second compound 0.1 µM) | IC50 (second compound 0.316 µM) | IC50 (second compound 1 µM) | IC50 (second compound 3.16 µM) | IC50 (second compound 10 µM)
inactive: viability, T/C [1] 87.3% | viability, T/C [2] 87.1% | viability, T/C [3] 98.5% | viability, T/C [4] 113% | viability, T/C [5] 115% | viability, T/C [6] 88.6% | viability, T/C [7] 47% | viability, T/C [8] 41.6% | viability, T/C [9] 36.9% | viability, T/C [10] 34.3% | viability, T/C [11] 34.6% | viability, T/C [12] 35.8% | viability, T/C [13] 26.4% | viability, T/C [14] 29.9% | viability, T/C [15] 27.9% | viability, T/C [16] 32% | viability, T/C [17] 24.5% | viability, T/C [18] 24.8% | viability, T/C [19] 23.8% | viability, T/C [20] 22.1% | viability, T/C [21] 19.9% | viability, T/C [22] 22.1% | viability, T/C [23] 23% | viability, T/C [24] 19.2% | viability, T/C [25] 15.7% | viability, T/C [26] 19.6% | viability, T/C [27] 17.4% | viability, T/C [28] 14.5% | viability, T/C [29] 14.9% | viability, T/C [30] 13.6% | viability, T/C [31] 19% | viability, T/C [32] 17.1% | viability, T/C [33] 14.4% | viability, T/C [34] 15.9% | viability, T/C [35] 15.2% | viability, T/C [36] 15.8%
> 10000 nM: IC50 (second compound 0.0316 µM)

NC(=O)C(=Cn1cnc(-c2cc(C(F)(F)F)cc(C(F)(F)F)c2)n1)c1cncnc1 + CNC(=O)c1ccc(Nc2nc(OC3CCCC3)c3c(-c4ccc5nc(C)oc5c4)c[nH]c3n2)c(OC)c1
240 nM: IC50 (second compound 0.0316 µM)
inactive: viability, T/C (second compound 0.0316 µM, first compound 0.00949 µM) 105% | viability, T/C (second compound 0.0316 µM, first compound 0.03 µM) 103% | viability, T/C (second compound 0.0316 µM, first compound 0.0949 µM) 124% | viability, T/C (second compound 0.0316 µM, first compound 0.3 µM) 35.5% | viability, T/C (second compound 0.1 µM, first compound 0.00949 µM) 44.5% | viability, T/C (second compound 0.1 µM, first compound 0.03 µM) 42.2% | viability, T/C (second compound 0.1 µM, first compound 0.0949 µM) 28.9% | viability, T/C (second compound 0.1 µM, first compound 0.3 µM) 10.7% | viability, T/C (second compound 0.316 µM, first compound 0.00949 µM) 29.7% | viability, T/C (second compound 0.316 µM, first compound 0.03 µM) 29.7% | viability, T/C (second compound 0.316 µM, first compound 0.0949 µM) 27.1% | viability, T/C (second compound 0.316 µM, first compound 0.3 µM) 8.97% | viability, T/C (second compound 1 µM, first compound 0.00949 µM) 21.2% | viability, T/C (second compound 1 µM, first compound 0.03 µM) 24% | viability, T/C (second compound 1 µM, first compound 0.0949 µM) 19.4% | viability, T/C (second compound 3.16 µM, first compound 0.00949 µM) 16.4% | viability, T/C (second compound 3.16 µM, first compound 0.03 µM) 17.2% | viability, T/C (second compound 3.16 µM, first compound 0.0949 µM) 13.8% | viability, T/C (second compound 10 µM, first compound 0.00949 µM) 16.3% | viability, T/C (second compound 10 µM, first compound 0.03 µM) 16.8% | viability, T/C (second compound 10 µM, first compound 0.0949 µM) 11.7%
active: viability, T/C (second compound 0.0316 µM, first compound 0.949 µM) 1.65% | viability, T/C (second compound 0.0316 µM, first compound 3 µM) 0.39% | viability, T/C (second compound 0.1 µM, first compound 0.949 µM) 1% | viability, T/C (second compound 0.1 µM, first compound 3 µM) 0.65% | viability, T/C (second compound 0.316 µM, first compound 0.949 µM) 1.36% | viability, T/C (second compound 0.316 µM, first compound 3 µM) 1.61% | viability, T/C (second compound 1 µM, first compound 0.3 µM) 5.67% | viability, T/C (second compound 1 µM, first compound 0.949 µM) 0.48% | viability, T/C (second compound 1 µM, first compound 3 µM) 1.21% | viability, T/C (second compound 3.16 µM, first compound 0.3 µM) 4.75% | viability, T/C (second compound 3.16 µM, first compound 0.949 µM) 1.02% | viability, T/C (second compound 3.16 µM, first compound 3 µM) 0.26% | viability, T/C (second compound 10 µM, first compound 0.3 µM) 4.97% | viability, T/C (second compound 10 µM, first compound 0.949 µM) 0.49% | viability, T/C (second compound 10 µM, first compound 3 µM) 0.34%
< 9.49 nM: IC50 (second compound 0.1 µM) | IC50 (second compound 0.316 µM) | IC50 (second compound 1 µM) | IC50 (second compound 3.16 µM) | IC50 (second compound 10 µM)
